Like-named read-outs stand apart in the source and are kept apart here.
Legend:
[1] = biological target: T1, LIF-LIFR interaction (recombinant human LIFR His-Tag / biotinylated LIF) (Homo sapiens, UniProt P42702); experiment: Cell-free AlphaScreen assay of LIF-LIFR interaction; assay type: binding; settings: for inhibition at 10 µM: read-out: % LIFR inhibition (10 μM); for inhibition at 50 µM: read-out: % LIFR inhibition (50 μM)
T1 construct: purchased Sino Biological (LIFR); R&D Systems (LIF)
T1 sequence (P42702 45-833 limits assumed): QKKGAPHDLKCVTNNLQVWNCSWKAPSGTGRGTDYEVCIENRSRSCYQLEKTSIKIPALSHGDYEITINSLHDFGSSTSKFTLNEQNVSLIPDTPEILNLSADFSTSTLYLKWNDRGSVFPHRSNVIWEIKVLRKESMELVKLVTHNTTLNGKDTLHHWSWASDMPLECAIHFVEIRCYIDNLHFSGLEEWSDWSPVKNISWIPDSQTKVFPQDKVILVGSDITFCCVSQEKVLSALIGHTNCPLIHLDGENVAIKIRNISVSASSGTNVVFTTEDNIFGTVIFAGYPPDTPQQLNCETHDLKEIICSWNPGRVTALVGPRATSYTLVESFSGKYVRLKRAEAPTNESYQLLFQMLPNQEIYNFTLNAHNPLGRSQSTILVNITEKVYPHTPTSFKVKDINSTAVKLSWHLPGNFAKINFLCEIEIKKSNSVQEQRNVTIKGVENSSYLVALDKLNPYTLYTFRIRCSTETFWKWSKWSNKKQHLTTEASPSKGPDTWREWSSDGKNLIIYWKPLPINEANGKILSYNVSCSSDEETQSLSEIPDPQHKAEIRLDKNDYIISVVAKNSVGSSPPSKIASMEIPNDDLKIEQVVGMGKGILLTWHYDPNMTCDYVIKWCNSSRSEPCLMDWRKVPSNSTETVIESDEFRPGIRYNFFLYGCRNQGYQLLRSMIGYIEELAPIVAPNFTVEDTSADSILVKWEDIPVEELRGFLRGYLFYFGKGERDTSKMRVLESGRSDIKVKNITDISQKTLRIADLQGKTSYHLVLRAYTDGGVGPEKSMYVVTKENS
Protocol: Recombinant human LIFR (His-Tag) and LIF (biotinylated) were purchased from Sino Biologicals (Sino Biological Europe GmbH, Dusseldorf, Germany) and R&D Systems (Abingdon, UK), respectively, and both were reconstituted as required by the manufacturer. Inhibition of LIFR/LIF binding was measured by AlphaScreen, in white, low-volume, 384-well AlphaPlates (PerkinElmer, Waltham, MA, USA) using a final volume of 15 μL and an assay buffer containing 25 mM Hepes (pH 7.4), 100 mM NaCl, and 0.005% Kathon. The concentration of DMSO in each well was maintained at 5% v/v. […] Then, streptavidin donor beads were added (final concentration 20 ng/μL), and the plate was incubated in the dark for 2 h and then read in an EnSpire Alpha multimode plate reader (PerkinElmer, Waltham, MA, USA). […] Each concentration was tested in triplicate (N = 3). When present, outliers were removed, resulting in N = 2. Data, reported as averaged intensity values ± standard deviation and N, were exploited to fit the curves through GraphPad Prism 8.

[2] = biological target: T2, LIFR (Homo sapiens, UniProt P42702); experiment: Luciferase reporter (transactivation) assay on HepG2 cells transfected with LIFR; assay type: cell-based; settings: relative to LIF as 100%, mean ± SD
T2 construct: expressed in transfected cells; host or cells: HepG2
T2 sequence (P42702 45-1097): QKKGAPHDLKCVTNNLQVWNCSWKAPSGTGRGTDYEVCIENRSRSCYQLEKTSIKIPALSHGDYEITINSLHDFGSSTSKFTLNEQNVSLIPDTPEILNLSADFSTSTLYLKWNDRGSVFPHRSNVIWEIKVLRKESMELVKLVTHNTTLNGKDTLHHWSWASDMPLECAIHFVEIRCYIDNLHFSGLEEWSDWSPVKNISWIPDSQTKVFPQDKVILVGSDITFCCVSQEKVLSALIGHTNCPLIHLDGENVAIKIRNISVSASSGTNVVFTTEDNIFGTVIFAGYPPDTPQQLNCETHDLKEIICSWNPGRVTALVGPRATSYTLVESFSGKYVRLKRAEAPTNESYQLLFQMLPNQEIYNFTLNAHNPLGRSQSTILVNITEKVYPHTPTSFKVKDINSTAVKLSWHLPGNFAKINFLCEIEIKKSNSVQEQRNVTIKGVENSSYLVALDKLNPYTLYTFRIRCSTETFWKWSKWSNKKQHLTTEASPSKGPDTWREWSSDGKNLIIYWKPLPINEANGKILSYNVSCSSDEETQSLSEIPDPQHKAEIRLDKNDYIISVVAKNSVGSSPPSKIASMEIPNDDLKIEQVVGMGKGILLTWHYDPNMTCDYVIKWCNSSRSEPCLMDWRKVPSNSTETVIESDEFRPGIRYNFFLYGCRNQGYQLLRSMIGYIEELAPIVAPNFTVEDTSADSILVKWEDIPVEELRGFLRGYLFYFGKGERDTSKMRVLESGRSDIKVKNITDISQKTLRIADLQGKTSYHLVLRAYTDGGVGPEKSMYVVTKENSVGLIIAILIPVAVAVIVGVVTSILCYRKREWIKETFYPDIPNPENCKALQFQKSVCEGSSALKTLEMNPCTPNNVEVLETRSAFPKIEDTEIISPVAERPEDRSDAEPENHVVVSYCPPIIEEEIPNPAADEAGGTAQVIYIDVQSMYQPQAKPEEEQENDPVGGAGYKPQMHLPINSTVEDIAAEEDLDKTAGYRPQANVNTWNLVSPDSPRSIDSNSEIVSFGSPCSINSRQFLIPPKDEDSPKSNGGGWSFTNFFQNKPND
Protocol: (§1) Hek293T cells, obtained from ATCC (Manassas, VA, USA), were cultured in a D-MEM medium (Sigma-Merk Life Science S.r.l., Milan, Italy) enriched with 10% fetal bovine serum, 1% L-glutamine, and 1% penicillin/streptomycin. HEPG2 cells, also from ATCC, were grown in an MEM medium (Euroclone, reference ECB2071L) supplemented with 10% fetal bovine serum (Euroclone, reference ECS5000L), 1% L-glutamine (Euroclone, reference ECB3000D), and 1% penicillin/streptomycin (Euroclone, reference ECB3001D). All cultures were maintained in a humidified environment with 5% CO2 at 37 °C. Additionally, it was confirmed that the cells were free from Mycoplasma contamination, as verified using the Mycoplasma PCR Detection Kit (Aurogene, reference G238).
(§2) The luciferase reporter gene assay protocol takes place over four days. On the first day, HEPG2 or HEK293T cells are seeded in a 24-well plate at a density of 7.5 × 10^4 cells/well for HEPG2 or 2.5 × 10^4 cells/well for HEK293T. On the second day, cells are transiently transfected, preparing a separate mix for each receptor. To assess the phosphorylation of STAT3 signaling, HEPG2 cells were transfected with 200 ng of the reporter vector containing the Pgl4.47 response element, along with 100 ng each of LIFR, IL6ST (gp130), and pGL4.70 (Promega, Madison, WI), a vector encoding the human Renilla gene. The following day, the cells were stimulated with 10 ng/mL LIF, either alone or in combination with 2o at concentrations of 0.1, 1, 10, 25, and 50 μM, to generate a dose–response curve. For GPBAR1 agonism, HEK293T cells were transfected with 200 ng of the reporter vector pG29-CRE-LUC, 150 ng of pcmvsport-hTGR5, and 150 ng of pGL4.70, the human Renilla gene. The following day, cells were stimulated with 10 μM TLCA alone as a positive control and compound 2o at concentrations of 1 and 10 nM, as well as 0.1, 1, 2.5, 5, 10, 20, and 30 μM, to generate a dose–response curve. On the final day, cellular lysates were analyzed for luciferase and Renilla activities using the Dual-Luciferase Reporter Assay System (Promega, Madison, WI). pLuminescence was measured with a Glomax 20/20 luminometer (Promega, Madison, WI), and luciferase activities were normalized to Renilla activities.

[3] = biological target: T3, GPBAR1 (Homo sapiens, UniProt Q8TDU6); experiment: Luciferase reporter (transactivation) assay on HEK293T cells transfected with GPBAR1; assay type: cell-based; settings: HEK-293T, relative to TLCA (10 μM) as 100%, mean ± SD, na = not active, read-out: GPBAR1 eff % (10 μM)
T3 construct: expressed in transfected cells; host or cells: HEK293T
T3 sequence (Q8TDU6 1-330): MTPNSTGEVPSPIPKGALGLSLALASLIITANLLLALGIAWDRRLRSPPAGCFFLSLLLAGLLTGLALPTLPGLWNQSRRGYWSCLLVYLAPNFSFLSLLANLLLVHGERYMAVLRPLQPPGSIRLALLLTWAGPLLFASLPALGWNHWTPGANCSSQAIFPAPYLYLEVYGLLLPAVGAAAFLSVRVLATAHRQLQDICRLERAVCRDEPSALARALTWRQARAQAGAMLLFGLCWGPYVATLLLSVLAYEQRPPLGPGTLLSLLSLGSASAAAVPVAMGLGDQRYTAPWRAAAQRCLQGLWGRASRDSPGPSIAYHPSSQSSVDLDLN
Protocol: as §1, §2

Row | SMILES | inhibition at 10 µM ([1]; 10 μM, LIF-LIFR signal without compound set as 100% interaction, mean ± SD) [%] | inhibition at 50 µM ([1]; 50 μM, LIF-LIFR signal without compound set as 100% interaction, mean ± SD) [%] | IC50 ([1]; inhibition of LIF-LIFR interaction, ± SD, read-out: IC50) [µM] | IC50 [1] [µM] | inhibition at 10 µM [1] [%] | inhibition at 50 µM [1] [%] | inhibition at 10 µM [2] [%] | Emax at 10 µM [3] [%]
1 | CC#C[C@]1(O)CC[C@H]2[C@@H]3CCC4=CC(=O)CCC4=C3[C@@H](c3ccc(N(C)C)cc3)C[C@@]21C [Mifepristone, mifepristone, reference compound] | 70.5 ± 3.7 | 94.6 ± 7.3 | 0.366 ± 0.063 | – | – | – | – | –
2 | C[C@]12C[C@H](c3ccccc3)C3=C4CCC(=O)C=C4CC[C@H]3[C@@H]1CCC2=O [Compound 1c, 11β-Phenylestra-4,9-dien-3,17-dione] | – | – | – | 26.9 ± 3.12 | 34.3 ± 11.2 | 40.5 ± 4.18 | 76.8 ± 6.7 | 35 ± 1.5
3 | C[C@]12C[C@H](c3ccc(-c4ccccc4)cc3)C3=C4CCC(=O)C=C4CC[C@H]3[C@@H]1CCC2=O [Compound 1a] | – | – | – | 1.42 ± 0.2 | 62.4 ± 9.2 | 76.4 ± 4.1 | 33.8 ± 3.7 | 44.8 ± 5.1
4 | COC(=O)c1cccc(-c2ccc([C@H]3C[C@]4(C)C(=O)CC[C@H]4[C@@H]4CCC5=CC(=O)CCC5=C43)cc2)c1 [Compound 2s] | – | – | – | 0.159 ± 0.06 | 63.6 ± 4.1 | 74.3 ± 14.1 | 80.8 ± 0.9 | > 50
5 | C[C@]12C[C@H](c3ccc(I)cc3)C3=C4CCC(=O)C=C4CC[C@H]3[C@@H]1CCC2=O [Compound 1f, 11β-(4-Iodophenyl)estra-4,9-dien-3,17-dione] | – | – | – | 9.78 ± 1.75 | 45.4 ± 1.3 | 61.3 ± 7.5 | 89.9 ± 1.2 | –
6 | C[C@]12C[C@H](c3ccc(-c4ccc(Br)nc4)cc3)C3=C4CCC(=O)C=C4CC[C@H]3[C@@H]1CCC2=O [Compound 2d] | – | – | – | 5.54 ± 1.39 | 42.1 ± 2.3 | 64.4 ± 7.5 | 88.8 ± 3.4 | –
7 | CN(C)c1ccc([C@H]2C[C@]3(C)C(=O)CC[C@H]3[C@@H]3CCC4=CC(=O)CCC4=C32)cc1 [Compound 1b] | – | – | – | 0.535 ± 0.209 | 60 ± 14.7 | 84.3 ± 1.4 | 104 ± 2.5 | 21.7 ± 0.3
8 | C[C@]12C[C@H](Cc3ccc(O)cc3)C3=C4CCC(=O)C=C4CC[C@H]3[C@@H]1CCC2=O [Compound 1e, 11β-(4-Hydroxybenzyl)estra-4,9-dien-3,17-dione] | – | – | – | 45.6 ± 10.5 | 29.3 ± 6.7 | 35.1 ± 13 | 29.1 ± 1.4 | 9 ± 4
9 | C[C@]12C[C@H](c3ccc(C4CC4)cc3)C3=C4CCC(=O)C=C4CC[C@H]3[C@@H]1CCC2=O [Compound 1g, 11β-(4-Cyclopropylphenyl)-estra-4,9-dien-3,17-dione] | – | – | – | 9.42 ± 2.32 | 45.1 ± 1.9 | 62.1 ± 6.1 | 51.1 ± 1.4 | 16.5 ± 1.5
10 | C[C@]12C[C@H](c3ccc(-c4cccc(C(=O)O)c4)cc3)C3=C4CCC(=O)C=C4CC[C@H]3[C@@H]1CCC2=O [Compound 2t] | – | – | – | 24.8 ± 2.8 | 22.8 ± 5.1 | 62.3 ± 7.3 | 38.7 ± 0.6 | 20.4 ± 1.4
11 | COc1ccc(C[C@H]2C[C@]3(C)C(=O)CC[C@H]3[C@@H]3CCC4=CC(=O)CCC4=C23)cc1 [Compound 1d, 11β-(4-Methoxybenzyl)estra-4,9-dien-3,17-dione] | – | – | – | 43.1 ± 4.6 | 26.5 ± 6.2 | 41.1 ± 8 | 92 ± 7 | –

Reference: paper PMC12516728, “Harnessing the Estradienone Scaffold to Develop Dual GPBAR1 and LIFR Modulators for Liver Fibrosis” (Journal of Medicinal Chemistry, 2025)
